Experimental data published in article PMC10447463, “Data-mining unveils structure–property–activity correlation of viral infectivity enhancing self-assembling peptides” (Nature Communications, 2023).

These substances were tested on HIV-1 infection of TZM-bl cells (assay: HIV-1 infectivity enhancement assay, β-galactosidase luminescence). Conditions: input.xlsx of the Pattern-Analysis script; infectivity relative to EF-C (peptide 59 = 1.00).
Format: cell-based

Row | Substance | infectivity
1 | CKAKAQANMWQ [compound 10] | 0.0437
2 | KYKYQY [compound 88] | 0.01
3 | NMWQKVGTPL [compound 70] | 0.0247
4 | CETMYDKILKNLSRSR [compound 57] | 0.02
5 | KVKVKVQV [compound 64] | 0.0173
6 | KIKIQINMWWQ [compound 156] | 3.21
7 | CEIEIQI [compound 2] | 0.0279
8 | NMWQKIKQII [compound 71] | 0.0253
9 | HHHHKIKIKIKIWWWW [compound 140] | 0.38
10 | KFKFQFF [compound 121] | 0.12
11 | KIKIQIC [compound 125] | 0.61
12 | KNERIKNERI [compound 46] | 0.013
13 | KIKIQII [compound 113] | 0.0187
14 | EIKIQINM [compound 149] | 0.10
15 | CSISIQI [compound 132] | 0.0559
16 | KAKQAANMWQ [compound 69] | 0.03
17 | KIRGKFEKED [compound 47] | 0.06
18 | KIKIQIMWNQ [compound 159] | 0.56
19 | HHHHKIKIQINMYYYY [compound 138] | 1.11
20 | PPFHPPPFHP [compound 38] | 0.0177
21 | KLKLQLL [compound 120] | 0.00698
22 | KYKGAIIGNIK [compound 34] | 0.0031

Row | Substance | infectivity
23 | CKAKAQA [compound 137] | 0.03
24 | HLHLPLL [compound 31] | 0.01
25 | KIEIQINM [compound 108] | 0.0348
26 | KIKIQIII [compound 122] | 0.35
27 | HGEHGE [compound 53] | 0.00641
28 | KIKIKIKI [compound 130] | 0.0326
29 | MKIKIQINM [compound 141] | 0.27
30 | NMWQKFKFQF [compound 63] | 0.27
31 | CHLHLQL [compound 56] | 0.10
32 | QCKIKIQINMWQ [compound 60] | 1.04
33 | CKFKQFF [compound 17] | 0.00675
34 | QCKFKQFF [compound 14] | 0.0124
35 | KIKIQINMWWWQ [compound 157] | 2.75
36 | QCKIKQIINM [compound 23] | 0.35
37 | KWKWQW [compound 93] | 0.0145
38 | KFKFQFNMW [compound 7] | 0.45
39 | HGEHGEHGE [compound 54] | 0.019
40 | HHHHKAKAKAKAWWWW [compound 151] | 0.09
41 | CEFEFQF [compound 90] | 0.00521
42 | CKIKQIINM [compound 3] | 0.50
43 | CKFKFQFW [compound 148] | 0.88
44 | EIEIQINMWQ [compound 162] | 0.13

Row | Substance | infectivity
45 | FKFDKFKFDK [compound 42] | 0.0464
46 | QCKFKQFFNM [compound 13] | 0.43
47 | RLRLTLC [compound 30] | 0.05
48 | CKIKQIIRGD [compound 110] | 0.05
49 | KFKFQFFF [compound 114] | 0.40
50 | HHHHKAKAKAKAYYYY [compound 124] | 0.0131
51 | IKVAVKIKIQINM [compound 150] | 0.50
52 | CKIW [compound 152] | 0.05
53 | KIKIQINMWQ [compound 61] | 0.30
54 | RGEKIKIQINM [compound 33] | 0.24
55 | CKIKIQINM [compound 98] | 1.59
56 | ILKNLSRSRKIKIQINMWQ [compound 154] | 0.32
57 | CKIKIQI [compound 99] | 1.02
58 | QCKIKQII [compound 24] | 0.00647
59 | KIKQIIN [compound 74] | 0.04
60 | KAKAQA [compound 78] | 0.0181
61 | KFKFQF [compound 80] | 0.06
62 | NMWQKAKAQA [compound 62] | 0.04
63 | SISISRRI [compound 44] | 0.0283
64 | QCKIKIQINM [compound 18] | 0.40
65 | KNDKND [compound 52] | 0.0105
66 | QCKAKAQANM [compound 20] | 0.0146

Row | Substance | infectivity
67 | KIKQIINMWQ [compound 65] | 0.35
68 | EFEFQF [compound 89] | 0.00327
69 | RGDCKIKIQINM [compound 142] | 0.24
70 | CKFQC [compound 48] | 0.0227
71 | KFKQFFNMWQ [compound 68] | 0.09
72 | KVKGVGK [compound 43] | 0.0259
73 | CKFKQFFNMWQ [compound 15] | 0.61
74 | QCKAKAQA [compound 21] | 0.0253
75 | CEFEFQFNMWQ [compound 131] | 0.14
76 | CRFRFQF [compound 28] | 0.34
77 | CKIKQII [compound 100] | 0.04
78 | RGDKIKIQI [compound 97] | 0.0157
79 | CKFKQFFNM [compound 16] | 0.41
80 | KIKIQIAMWQ [compound 85] | 0.39
81 | KIKQIINM [compound 73] | 0.45
82 | HGDKCHGDKC [compound 35] | 0.01
83 | CKIKIQINMWQ [compound 96] | 0.70
84 | KIKIQINMWA [compound 81] | 0.69
85 | TKTLTKTL [compound 41] | 0.0213
86 | EIEIQINM [compound 155] | 0.0363
87 | KIKIQINAWQ [compound 84] | 0.54
88 | HHHHKIKIKIKIYYYY [compound 144] | 0.68

Row | Substance | infectivity
89 | CRFRVPF [compound 55] | 0.02
90 | RGDKIKIQINMWQ [compound 105] | 0.76
91 | MKFKFQF [compound 58] | 0.0637
92 | KIKIQIRGD [compound 102] | 0.02
93 | KAKAQANM [compound 136] | 0.009
94 | CKFKFQF [compound 6] | 1.23
95 | HHHHEIEIEIEI [compound 87] | 0.03
96 | KFKFQFNMWQ [compound 67] | 0.76
97 | CKIKIQINMW [compound 153] | 1.29
98 | CEIEIQINMWQ [compound 133] | 0.22
99 | KIKIQINM [compound 76] | 0.36
100 | KKFQKKFQ [compound 37] | 0.0285
101 | KFKFKFQF [compound 118] | 0.80
102 | CKIKIQIII [compound 1] | 0.98
103 | RGECKFKFQF [compound 32] | 0.33
104 | KIKQII [compound 107] | 0.00492
105 | KIKIKIKIWWWW [compound 129] | 0.59
106 | KIKIQINMWQRGD [compound 161] | 0.0121
107 | CQFQFQF [compound 112] | 0.35
108 | QCKFKFQFNMWQ [compound 25] | 0.62
109 | CKFKFQFNM [compound 5] | 1.24
110 | CKFKFQFNMWQ [compound 4] | 1.16
